Data published in patent US20160362416A1, “ANTIVIRAL COMPOUNDS” (Gilead Sciences, Inc., priority 2012, published 2016).

Assays:
[1] = system: stable HCV 1b RLuc replicon cells (genotype 1b Con1 replicon); test: HCV genotype 1b RLuc replicon reporter assay; type: cell-based; details: Hepatitis C virus; stable genotype 1b Con1 RLuc replicon cells, 72 hours
Procedure, shortened: (§1)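 Chimeric replicons for 3a and 4a use a Pi-RLuc reporter and were transiently transfected into Huh-Lunet cells; the 2b chimera (RLuc-Neo) was likewise transient in Huh-Lunet; 1b cells are stable. Cells were exposed to 3-fold serial compound dilutions for 72 h, then lysed. EC50s came from non-linear regression of Renilla luciferase signal.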

[2] = system: NS5A chimeric genotype 1b Con1 replicon with genotype 3a S52 strain NS5A gene; test: HCV genotype 3a NS5A chimeric replicon assay; type: cell-based; details: Hepatitis C virus, 72 h, read-out: 3a (nM)
Procedure, shortened: as §1

[3] = system: NS5A chimeric genotype 1b Con1 replicon with genotype 4a ED43 strain NS5A gene; test: HCV genotype 4a NS5A chimeric replicon assay; type: cell-based; details: Hepatitis C virus, 72 h, read-out: 4a (s) (nM)
[4] = system: stable HCV 2a JFH-1 Rluc replicon cells (L31 present in NS5A); test: HCV genotype 2a JFH-1 RLuc replicon reporter assay; type: cell-based; details: Hepatitis C virus, 72 h, read-out: 2a JFH (nM)
[5] = system: stable HCV 1a RLuc replicon cells (genotype 1a H77 replicon); test: HCV genotype 1a RLuc replicon reporter assay; type: cell-based; details: Hepatitis C virus; stable genotype 1a H77 RLuc replicon cells, 72 hours
[6] = IV and PO single dose pharmacokinetic studies in SD rats; type: in vivo; details: Sprague-Dawley, rat, plasma, male SD rats, IV infusion 1 mg/kg, oral gavage 2 mg/kg, read-out: Rat % F
Protocol: IV and PO Single Dose Pharmacokinetic Studies in SD Rats: The pharmacokinetics of selected compounds was characterized in male Sprague-Dawley (SD) rats (250-300 g). In this study, two groups of naïve purebred SD rats (N=3 per group, fasted over night) received the selected compound either as an intravenous (IV) infusion (1 mg/kg over 30 minutes) via the jugular vein or by oral gavage (2 mg/kg). The intravenous (IV) dosing vehicle was 5% ethanol, 35% polyethylene glycol 400 (PEG 400) and 60% water pH 2.0. The oral dosing vehicle was 5% ethanol, 55% PEG 400 and 40% citrate buffer pH 2.2.
Serial blood samples (approximately 0.3 mL each) were collected from jugular vein or other suitable vein at specified time points. For the IV infusion group, the blood samples were collected predose and at 0.25, 0.48, 0.58, 0.75, 1.5, 3, 6, 8, 12 and 24 hours after the start of infusion. For the oral group, the blood samples were collected predose and at 0.25, 0.50, 1, 2, 4, 6, 8, 12 and 24 hours after dosing. The blood samples were collected into Vacutainer™ tubes containing EDTA-K3 as the anti-coagulant and were centrifuged at approximately 4° C. to obtain plasma. The plasma samples were stored at −20° C. until analysis by LC/MS/MS.
A bioanalytical method utilizing high performance liquid chromatography coupled to tandem mass spectrometry (LC/MS/MS) was developed for analysis of the selected compound in rat plasma. Detection was performed using selected reaction monitoring (SRM); Ions representing the precursor (M+H)^+ species was selected in quadrupole 1 (Q1) and collided with argon gas in the collision cell (Q2) to generate specific product ion, which was subsequently monitored by quadrupole 3 (Q3). Standard curve and quality control samples were prepared in male rat plasma and processed in the same way as the test samples to generate quantitative data.
Pharmacokinetic parameters were generated using non-compartmental pharmacokinetic analysis (Phoenix WinNonlin, version 6.3). Values below the lower limit of quantification (LLOQ) were assigned a value of zero if predose and treated as missing thereafter. Area under the curve (AUC) was calculated using the linear trapezoidal rule. The oral bioavailability (% F) was determined by comparison of the area under the curve (AUC) of the compound and/or a metabolite generated in plasma following oral administration to that generated following intravenous administration.

[7] = system: NS5A chimeric genotype 2a JFH-1 replicon with genotype 2a J6 strain NS5A gene (M31); test: HCV genotype 2a J6 NS5A chimeric replicon assay, transient (t); type: cell-based; details: Hepatitis C virus, 72 h, read-out: 2a J6 (t) (nM)
[8] = system: NS5A chimeric genotype 2a JFH-1 replicon with genotype 2b MD2b-1 strain NS5A gene (M31); test: HCV genotype 2b NS5A chimeric replicon assay, stable (s); type: cell-based; details: Hepatitis C virus, 72 h, read-out: 2b (s) (nM)
[9] = system: NS5A chimeric genotype 2a JFH-1 replicon with genotype 2b MD2b-1 strain NS5A gene (M31); test: HCV genotype 2b NS5A chimeric replicon assay, transient (t); type: cell-based; details: Hepatitis C virus, 72 h, read-out: 2b (t) (nM)
Protocol: (§2) Evaluation of cell-based anti-HCV activity: Antiviral potency (EC50) was determined using a Renilla luciferase (RLuc)-based HCV replicon reporter assay. To perform the assay for genotype 1 and 2a JFH-1, stable HCV 1a RLuc replicon cells (harboring a dicistronic genotype 1a H77 replicon that encodes a RLuc reporter), stable HCV lb RLuc replicon cells (harboring a dicistronic genotype 1b Conl replicon that encodes a RLuc reporter), or stable HCV 2a JFH-1 Rluc replicon cells (harboring a dicistronic genotype 2a JFH-1 replicon that encodes a RLuc reporter; with L31 present in NS5A) were dispensed into 384-well plates for EC50 assays. To perform the assay for genotype 2a (with M31 present in NS5A) or 2b, NS5A chimeric genotype 2a JFH-1 replicons that encodes a RLuc-Neo reporter and either genotype 2a J6 strain NS5A gene or genotype 2b MD2b-1 strain NS5A gene (both with M31 present) respectively, were either transiently transfected (t) into Huh-Lunet cells or were established as stably replicating replicon cells (s) is provided. Either cells were dispensed into 384-well plates for EC50 assays. To perform the assay for genotype 3 and 4, NS5A chimeric genotype 1b Conl replicons that encodes a Pi-RLuc reporter and either genotype 3a S52 strain NS5A gene or genotype 4a ED43 strain NS5A gene respectively, were transiently transfected (t) into Huh-Lunet cells, which were subsequently dispensed into 384-well plates. Compounds were dissolved in DMSO at a concentration of 10 mM and diluted in DMSO either manually or using an automated pipeting instrument. Serially 3-fold diluted compounds were either manually mixed with cell culture media and added to the seeded cells or directly added to the cells using an automated instrument. DMSO was used as a negative (solvent; no inhibition) control, and the protease inhibitor ITMN-191 was included at a concentration >100×EC50 as a positive control. 72 hours later, cells were lysed and Renilla luciferase activity quantified as recommended by the manufacturer (Promega-Madison, Wis.). Non-linear regression was performed to calculate EC50 values.

[10] = system: Y93N in genotype 1a NS5A replicon; test: Resistance mutant replicon assay, genotype 1a NS5A Y93N; type: cell-based, HCV; details: Hepatitis C virus, read-out: 1a Y93N (nM)
Procedure, shortened: (§3)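 Site-directed mutagenesis → mutant Pi-RLuc replicon RNA → transient transfection, cured-51 Huh-7 cells → 3-fold serial cpd dilutions from DMSO stock, 72 h → RLuc read → EC50, non-linear regression.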

[11] = system: L31V/Y93H in genotype 1b NS5A replicon; test: Resistance mutant replicon assay, genotype 1b NS5A L31V/Y93H; type: cell-based, HCV; details: Hepatitis C virus, read-out: 1b L31V/Y93H (nM)
Protocol: as §2
(§4) To determine the antiviral potency (EC50) against resistance mutants, resistance mutations, including M28T, Q30R, Q30H, Q30E, L31M, Y93C, Y93H, and Y93N in genotype 1a NS5A, Y93H and L31V/Y93H in genotype 1b NS5A, and Y93H for in genotype 3a NS5A, were introduced individually into either 1a Pi-Rluc or 1b Pi-Rluc replicons by site directed mutagenesis. Replicon RNA of each resistant mutant was transiently transfected into Huh-7-derived cured-51 cells and antiviral potency was determined on these transfected cells as described above.

[12] = system: Q30E in genotype 1a NS5A replicon; test: Resistance mutant replicon assay, genotype 1a NS5A Q30E; type: cell-based, HCV; details: Hepatitis C virus, read-out: 1a Q30E (nM)
Protocol: as §2, §4

[13] = system: Y93H in genotype 3a NS5A replicon; test: Resistance mutant replicon assay, genotype 3a NS5A Y93H; type: cell-based, HCV; details: Hepatitis C virus, read-out: 3a Y93H (nM)
Procedure, shortened: as §3

[14] = system: Y93H in genotype 1a NS5A replicon; test: Resistance mutant replicon assay, genotype 1a NS5A Y93H; type: cell-based, HCV; details: Hepatitis C virus, read-out: 1a Y93H (nM)
Procedure, shortened: as §3

Row | SMILES | EC50 [1] | EC50 [2] | EC50 [3] | EC50 [4] | EC50 [5] | bioavailability [6] | EC50 [7] | EC50 [8] | EC50 [9] | EC50 [10] | EC50 [11] | EC50 [12] | EC50 [13] | EC50 [14]
1 | CC[C@H]1CC[C@@H](c2nc3ccc4cc5c(cc4c3[nH]2)OCc2cc(-c3cnc([C@@H]4CC[C@H](C)N4C(=O)[C@@H](NC(=O)OC)C(C)C)[nH]3)ccc2-5)N1C(=O)[C@@H](NC(=O)OC)[C@H]1CCCOC1 [Example AG, Methyl{(1S)-2-[(2S,5S)-2-ethyl-5-(9-{2-[(2S,5S)-1-{(2S)-2[(methoxycarbonyl)amino]-3-methylbutanoyl}-5-methylpyrrolidin-2-yl]-1H-imidazol-5-yl}-1,11-dihydroisochromeno[4′,3′:6,7]naphtho[1,2-d]imidazol-2-yl)pyrrolidin-1-yl]-2-oxo-1-[(3R)-tetrahydro-2H-pyran-3-yl]ethyl}carbamate] | 0.026 nM | 0.137 nM | 0.014 nM | 0.025 nM | 0.023 nM | 27.8% | 0.121 nM | 0.092 nM | – | – | – | – | – | –
2 | COC(=O)N[C@H](C(=O)N1[C@@H](C)CC[C@H]1c1nc2ccc3cc4c(cc3c2[nH]1)OCc1cc(-c2cnc([C@@H]3CC[C@H](C)N3C(=O)[C@@H](NC(=O)OC)C3CCOCC3)[nH]2)ccc1-4)C(C)C [Comp 7, reference compound] | 0.028 nM | 0.035 nM | 0.019 nM | 0.015 nM | 0.018 nM | 10.2% | 0.035 nM | 0.088 nM | 0.037 nM | – | – | – | – | –
3 | CC[C@H]1C[C@@H](c2nc3ccc4cc5c(cc4c3[nH]2)OCc2cc(-c3cnc([C@@H]4CC[C@H](C)N4C(=O)[C@@H](NC(=O)OC)C(C)C)[nH]3)ccc2-5)N(C(=O)[C@@H](NC(=O)OC)C2C[C@@H](C)O[C@H](C)C2)C1 (stereo partly drawn) [Example AF, Methyl [(1S)-1-[(2R,6R)-2,6-dimethyltetrahydro-2H-pyran-4-yl]-2-{(2S,4S)-4-ethyl-2-[9-(2-{(2S,5S)-1-[N-(methoxycarbonyl)-L-valyl]-5-methylpyrrolidin-2-yl}-1H-imidazol-5-yl)-1,11-dihydroisochromeno[4′,3′:6,7]naphtho[1,2-d]imidazol-2-yl]pyrrolidin-1-yl}-2-oxoethyl]carbamate] | 0.037 nM | 0.016 nM | 0.005 nM | 0.012 nM | 0.022 nM | – | 0.003 nM | – | 0.014 nM | 0.899 nM | 0.18 nM | 0.097 nM | 4.59 nM | 0.268 nM
4 | COC(=O)N[C@H](C(=O)N1[C@@H](C)CC[C@H]1c1ncc(-c2ccc3c(c2)COc2cc4c(ccc5nc([C@@H]6CC[C@H](C)N6C(=O)[C@@H](NC(=O)OC)C6CCOCC6)[nH]c54)cc2-3)[nH]1)C(C)C [Comp 5, reference compound] | 0.029 nM | 0.041 nM | – | 0.013 nM | 0.022 nM | 22% | 0.012 nM | 0.054 nM | – | – | – | 0.297 nM | 0.549 nM | 0.466 nM
5 | COC(=O)N[C@H](C(=O)N1[C@@H](C)CC[C@H]1c1ncc(-c2ccc3c(c2)COc2cc4c(ccc5nc([C@@H]6CCCN6C(=O)[C@@H](NC(=O)OC)C6C[C@@H](C)O[C@H](C)C6)[nH]c54)cc2-3)[nH]1)C(C)C (stereo partly drawn) [Example AW, methyl {(2S)-1-[(2S,5S)-2-(5-{2-[(2S)-1-{(2S)-2-[(2R,6R)-2,6-dimethyltetrahydro-2H-pyran-4-yl]-2-[(methoxycarbonyl)amino]acetyl}pyrrolidin-2-yl]-1,11-dihydroisochromeno[4′,3′:6,7]naphtho[1,2-d]imidazol-9-yl}-1H-imidazol-2-yl)-5-methylpyrrolidin-1-yl]-3-methyl-1-oxobutan-2-yl}carbamate] | 0.07 nM | 0.015 nM | 0.008 nM | 0.011 nM | 0.029 nM | – | 0.021 nM | – | 0.029 nM | 1.47 nM | – | – | 1.51 nM | 0.704 nM
